Data on twelve compounds can be found in patent US11319316B2, “Compounds that induce degradation of anti-apoptotic Bcl-2 family proteins and the uses thereof” (BioVentures, LLC, priority 2016, dated 2022).

The term EC50 denotes the concentration needed to bring the measured effect to its halfway point. Lower therefore signals greater potency.

Common to all, as to type: cell-based
The subject of one assay is Normal WI38 (NSC). As to the kind of experiment: Viability of normal WI38 cells (NSC), 72 h, PI staining and flow cytometry. As to conditions: Homo sapiens, WI-38, viable (PI-) cells as percentage of vehicle control. The protocol: (§1) Normal WI38 (NSC) and IR-induced senescent WI38 cells (IR-SC) were incubated with vehicle or increasing concentrations of compounds of Formula (I) or Formula (II) for 72 hours. The cells were digested with 0.25% trypsin and 1 mM EDTA, and harvested in PBS containing 2% FBS. After incubation with propidium iodide (PI, 100 ng/ml) in PBS at room temperature for 1 minute, cells were centrifuged at 1,200 rpm for 6 minutes to remove PI and then resuspended in PBS containing 2% FBS for analysis using a flow cytometer. Viable cells (PI-cells) were analyzed by flow cytometry at a constant flow rate to count the number of cells and calculated as a percentage of control cells treated with vehicle. Table 1 depicts the EC50 values of the compounds of Formula (I) and compounds of Formula (II) against normal WI38 and IR-induced senescent WI38.
Background: A flow cytometer gives signals particle by particle.

For assay [1], the system named is IR-induced senescent WI38 cells (IR-SC). As to the kind of experiment: Viability of IR-induced senescent WI38 cells (IR-SC), 72 h, PI staining and flow cytometry. As to conditions: for EC50: Homo sapiens, WI-38, IR-induced senescent WI38 cells, 72 hours, viable (PI-) cells as percentage of vehicle control; for Ratio NSC/SC: ratio of WI38 EC50 in NSC to EC50 in IR-SC; for Selective inhibition of IR-SC WI38 cells versus normal WI38 cells: FIG. 2A, FIG. 2B, increasing concentrations. Here is the method:
as §1

For a further assay, the system named is NCI-H146 cancer cells. In words: Cancer cell viability by MTS, 72 h, NCI-H146. As to conditions: Homo sapiens. Here is the method:
(§2) RS4; 11 and NCI-H146 cancer cells were incubated with vehicle or increasing concentrations of compounds of Formula (I) and Formula (II). At 72 hours post-treatment cell viability was measured by MTS and EC50 was calculated as a percentage of control cells treated with vehicle. Table 1 depicts the EC50 values of compounds of Formula (I) and Formula (II) against RS4; 11 and NCI-H146.

The test system of the next assay is RS4; 11 cancer cells. As to the kind of experiment: Cancer cell viability by MTS, 72 h, RS4;11. As to conditions: Homo sapiens, RS4;11 cells. Here is the method: as §2

Molecules are shown by their SMILES.

As to `CC1(C)CCC(c2ccc(Cl)cc2)=C(CN2CCN(c3ccc(C(=O)NS(=O)(=O)c4ccc(N[C@H](CCN5CCN(C(=O)COCCOCCOCCOCCNc6cccc7c6C(=O)N(C6CCC(=O)NC6=O)C7=O)CC5)CSc5ccccc5)c(S(=O)(=O)C(F)(F)F)c4)cc3)CC2)C1` (some centres unmarked) [XZ-14540], the EC50 with Normal WI38 (NSC) is more than 10000 nM; in assay [1], 1130 nM; in the assay with NCI-H146 cancer cells, 76.2 nM; in the assay on RS4; 11 cancer cells, 82.4 nM. Also, in assay [1], the “Ratio NSC/SC” value is listed as 8.86.

Consider `CC1(C)CCC(CN2CCN(c3ccc(C(=O)NS(=O)(=O)c4ccc(NCC5CCOCC5)c([N+](=O)[O-])c4)c(Oc4cnc5[nH]ccc5c4)c3)CC2)=C(c2ccc(Cl)cc2)C1` [ABT-199, venetoclax, reference compound], for which the EC50 (in the assay on Normal WI38 (NSC); in assay [1]) was more than 10000 nM throughout.

For the compound `CC1(C)CCC(CN2CCN(c3ccc(C(=O)NS(=O)(=O)c4ccc(NCC5CCN(C(=O)COCCOCCOCCNc6cccc7c6C(=O)N(C6CCC(=O)NC6=O)C7=O)CC5)c([N+](=O)[O-])c4)c(Oc4cnc5[nH]ccc5c4)c3)CC2)=C(c2ccc(Cl)cc2)C1` (centres unmarked) [XZ-14522], the EC50 in the assay on Normal WI38 (NSC) was more than 10000 nM; in assay [1], more than 10000 nM; in the assay on NCI-H146 cancer cells, 1100 nM; in the assay on RS4; 11 cancer cells, 47 nM.

For `CC1(C)CCC(c2ccc(Cl)cc2)=C(CN2CCN(c3ccc(C(=O)NS(=O)(=O)c4ccc(N[C@H](CCN5CCOCC5)CSc5ccccc5)c(S(=O)(=O)C(F)(F)F)c4)cc3)CC2)C1` [ABT-263, navitoclax, reference compound], the EC50 in the assay with Normal WI38 (NSC) came to 12600 nM; in assay [1], 610 nM; in the assay on NCI-H146 cancer cells it was 27.5 nM; with RS4; 11 cancer cells it was 16 nM. Further, the “Ratio NSC/SC” value in assay [1] is recorded as 20.6.

As to `CC1(C)CCC(c2ccc(Cl)cc2)=C(CN2CCN(c3ccc(C(=O)NS(=O)(=O)c4ccc(N[C@H](CCN5CCN(C(=S)NCCOCCOCCNc6cccc7c6C(=O)N(C6CCC(=O)NC6=O)C7=O)CC5)CSc5ccccc5)c(S(=O)(=O)C(F)(F)F)c4)cc3)CC2)C1` (stereo partly drawn) [XZ-14516, 4-(4-((2-(4-chlorophenyl)-5,5-dimethylcyclohex-1-enyl)methyl)piperazin-1-yl)-N-(4-((2R)-4-(4-(2-(2-(2-(2-(2,6-dioxopiperidin-3-yl)-1,3-dioxoisoindolin-4-ylamino)ethoxy)ethoxy)ethylcarbamothioyl)piperazin-1-yl)-1-(phenylthio)butan-2-ylamino)-3-(trifluoromethylsulfonyl)phenylsulfonyl)benzamide], the EC50 was more than 10000 nM in the assay with Normal WI38 (NSC), 92 nM in assay [1], 517 nM with NCI-H146 cancer cells and 1090 nM in the assay on RS4; 11 cancer cells. For the same compound, the “Ratio NSC/SC” value in assay [1] is more than 109.

For `CC1(C)CCC(c2ccc(Cl)cc2)=C(CN2CCN(c3ccc(C(=O)NS(=O)(=O)c4ccc(N[C@H](CCN5CCN(C(=O)COCCOCCOCCNc6cccc7c6C(=O)N(C6CCC(=O)NC6=O)C7=O)CC5)CSc5ccccc5)c(S(=O)(=O)C(F)(F)F)c4)cc3)CC2)C1` (some centres unmarked) [XZ-14510], the EC50 in the assay with Normal WI38 (NSC) was more than 10000 nM; in assay [1], 177 nM; in the assay with NCI-H146 cancer cells, 112 nM; with RS4; 11 cancer cells it was 220 nM. Moreover, the “Ratio NSC/SC” value in assay [1] is more than 56.

Turning to `CC1(C)CCC(c2ccc(Cl)cc2)=C(CN2CCN(c3ccc(C(=O)NS(=O)(=O)c4ccc(N[C@H](CCN5CCN(C(=O)NCCOCCOCCNc6cccc7c6C(=O)N(C6CCC(=O)NC6=O)C7=O)CC5)CSc5ccccc5)c(S(=O)(=O)C(F)(F)F)c4)cc3)CC2)C1` (stereo partly drawn) [XZ-14509, 4-((R)-3-(4-(N-(4-(4-((2-(4-chlorophenyl)-5,5-dimethylcyclohex-1-enyl)methyl)piperazin-1-yl)benzoyl)sulfamoyl)-2-(trifluoromethylsulfonyl)phenylamino)-4-(phenylthio)butyl)-N-(2-(2-(2-(2-(2,6-dioxopiperidin-3-yl)-1,3-dioxoisoindolin-4-ylamino)ethoxy)ethoxy)ethyl)piperazine-1-carboxamide], the EC50 in the assay on Normal WI38 (NSC) was more than 10000 nM; in assay [1], 226 nM; in the assay with NCI-H146 cancer cells, 65 nM; in the assay with RS4; 11 cancer cells it was 90 nM. Further, in assay [1], the “Ratio NSC/SC” value is more than 44.22.

Turning to `CC(C)(C)OC(=O)N1CCN(CC#Cc2ccc(OCCCc3sc(N4CCc5cccc(C(=O)Nc6nc7ccccc7s6)c5C4)nc3C(=O)O)c(F)c2)CC1` [XZ-13861, 2-(8-(benzo[d]thiazol-2-ylcarbamoyl)-3,4-dihydroisoquinolin-2(1H)-yl)-5-(3-(4-(3-(4-(tert-butoxycarbonyl)piperazin-1-yl)prop-1-ynyl)-2-fluorophenoxy)propyl)thiazole-4-carboxylic acid], in the assay with Normal WI38 (NSC), the EC50 amounted to 32800 nM. Besides, in assay [1], the “Selective inhibition of IR-SC WI38 cells versus normal WI38 cells” value is on record as “selectively inhibit IR-SC WI38 cells but not normal WI 38 cells in a dose dependent manner”, the EC50 turned out to be 3120 nM and the “Ratio NSC/SC” value was determined as 10.51.

Turning to `O=C1CCC(N2C(=O)c3cccc(NCCOCCOCc4cn(CCCC(=O)N5CCN(CC#Cc6ccc(OCCCc7sc(N8CCc9cccc(C(=O)Nc%10nc%11ccccc%11s%10)c9C8)nc7C(=O)O)c(F)c6)CC5)nn4)c3C2=O)C(=O)N1` (centres unmarked) [XZ-14424, 2-(8-(benzo[d]thiazol-2-ylcarbamoyl)-3,4-dihydroisoquinolin-2(1H)-yl)-5-(3-(4-(3-(4-(4-(4-((2-(2-((2-(2,6-dioxopiperidin-3-yl)-1,3-dioxoisoindolin-4-yl)amino)ethoxy)ethoxy)methyl)-1H-1,2,3-triazol-1-yl)butanoyl)piperazin-1-yl)prop-1-yn-1-yl)-2-fluorophenoxy)propyl)thiazole-4-carboxylic acid], the values for the EC50 (in the assay with Normal WI38 (NSC); in assay [1]) were 1600 nM and 1400 nM, respectively. In assay [1], the “Ratio NSC/SC” value worked out at 1.2.

Consider `Cc1ncsc1-c1ccc(CNC(=O)[C@@H]2C[C@@H](O)CN2C(=O)[C@@H](NC(=O)CCC(=O)NCCOCCOCCNC(=O)N2CCC(CNc3ccc(S(=O)(=O)NC(=O)c4ccc(N5CCN(CC6=C(c7ccc(Cl)cc7)CC(C)(C)CC6)CC5)cc4Oc4cnc5[nH]ccc5c4)cc3[N+](=O)[O-])CC2)C(C)(C)C)cc1` [XZ-14528, N1-(2-(2-(2-(4-(((4-N-(2-((1H-pyrrolo[2,3-b]pyridin-5-yl)oxy)-4-(4-((4′-chloro-5,5-dimethyl-3,4,5,6-tetrahydro-(1,1′-biphenyl-2-yl)methyl)piperazin-1-yl)benzoyl)sulfamoyl)-2-nitrophenyl)amino)methyl)piperidine-1-carboxamido)ethoxy)ethoxy)ethyl)-N4-((S)-1-((2S,4R)-4-hydroxy-2-((4-(4-methylthiazol-5-yl)benzyl)carbamoyl)pyrrolidin-1-yl)-3,3-dimethyl-1-oxobutan-2-yl)succinamide], for which the EC50 was more than 10000 nM in the assay on Normal WI38 (NSC), more than 10000 nM in assay [1], more than 2000 nM in the assay on NCI-H146 cancer cells and 397 nM with RS4; 11 cancer cells.

On to `CC1(C)CCC(CN2CCN(c3ccc(C(=O)NS(=O)(=O)c4ccc(NCC5CCN(C(=O)CCCn6cc(COCCOCCOCCNc7cccc8c7C(=O)N(C7CCC(=O)NC7=O)C8=O)nn6)CC5)c([N+](=O)[O-])c4)c(Oc4cnc5[nH]ccc5c4)c3)CC2)=C(c2ccc(Cl)cc2)C1` (centres unmarked) [XZ-14523, 2-((1H-pyrrolo[2,3-b]pyridin-5-yl)oxy)-4-(4-((4′-chloro-5,5-dimethyl-3,4,5,6-tetrahydro-[1,1′-biphenyl]-2-yl)methyl)piperazin-1-yl)-N-((4-(((1-(4-(4-((2-(2-(2-((2-(2,6-dioxopiperidin-3-yl)-1,3-dioxoisoindolin-4-yl)amino)ethoxy)ethoxy)ethoxy)methyl)-1H-1,2,3-triazol-1-yl)butanoyl)piperidin-4-yl)methyl)amino)-3-nitrophenyl)sulfonyl)benzamide], for which the concentration for a half-maximal effect (EC50) with Normal WI38 (NSC) was more than 10000 nM; in assay [1], more than 10000 nM; in the assay with NCI-H146 cancer cells, 1260 nM; in the assay on RS4; 11 cancer cells it was 161 nM.

Regarding `O=C1CCC(N2C(=O)c3cccc(NCCOCCOCCOCc4cn(CCCC(=O)N5CCN(CC#Cc6ccc(OCCCc7sc(N8CCc9cccc(C(=O)Nc%10nc%11ccccc%11s%10)c9C8)nc7C(=O)O)c(F)c6)CC5)nn4)c3C2=O)C(=O)N1` (centres unmarked) [XZ-12906, 2-(8-(benzo[d]thiazol-2-ylcarbamoyl)-3,4-dihydroisoquinolin-2(1H)-yl)-5-(3-(4-(3-(4-(4-(4-((2-(2-(2-(2-(2,6-dioxopiperidin-3-yl)-1,3-dioxoisoindolin-4-ylamino)ethoxy)ethoxy)ethoxy)methyl)-1H-1,2,3-triazol-1-yl)butanoyl)piperazin-1-yl)prop-1-ynyl)-2-fluorophenoxy)propyl)thiazole-4-carboxylic acid], the “Selective inhibition of IR-SC WI38 cells versus normal WI38 cells” value in assay [1] is recorded as “selectively inhibit IR-SC WI38 cells but not normal WI 38 cells in a dose dependent manner”.
